Experimental data as given in patent US6313171A, “Method for preventing or treating elevated blood lipid level-related diseases by administering cinnamic acid derivatives” (Korea Research Institute of Bioscience & Biotechnology, priority 1998, dated 2001).
Where two headings read alike, the source gives them in different places.

How the values were obtained:
[1] = assay type: in vivo, rabbit (New Zealand White); details: rabbits, 1% cholesterol diet plus 0.1% derivative or 1 mg/kg Lovastatin, 8 weeks; for HDL/TC: Control 2.5 ± 0.4; for HDL-C (High density lipoprotein-cholesterol): Control 50 ± 11; for TG (Triglyceride): Control 170 ± 30; for TC (Total cholesterol): Control 1995 ± 472
Description: 30 three-month-old male New Zealand White rabbits (Yeonam Horticulture and Animal Husbandry College, Korea), each weighing about 2.5 to 2.6 kg, were raised under condition of temperature 20±2° C., relative humidity 55±5%, and photoperiod 12L/12D. The rabbits were divided into 5 groups and 5 groups of rabbits were fed with 5 different diets, i.e., RC4 diet (Oriental Yeast Co., Japan) containing 1% cholesterol (Control group); 1% cholesterol plus 1 mg/kg Lovastatin® (Merck, U.S.A.) (Lovastatin group); 1% cholesterol plus 0.1% 4-hydroxycinnamic acid (4-hydroxycinnamic acid group); 1% cholesterol plus 0.1% 3,4-dihydroxycinnamic acid (3,4-dihydroxycinnamic acid group); and 1% cholesterol plus 0.1% 3,4-dihydroxyhydrocinnamic acid (3,4-dihydroxyhydrocinnamic acid group), respectively. RC4 diet comprises 7.6% moisture, 22.8% crude protein, 2.8% crude fat, 8.8% crude ash, 14.4% crude cellulose and 43.6% soluble nitrogen-free substances. Cinnamic acid derivatives were purchased from Sigma Chemical Co. (St. Louis, Mo.).
The rabbits were fed for 8 weeks while being allowed free access to the diets and water.
After eight weeks, the rabbits were anesthetized with an intramuscular injection of ketamine (50 mg/kg) in the femoral region and sacrificed. A blood sample was taken from the heart of each rabbit, allowed to stand for 2 hours and centrifuged at 3,000 rpm for 15 minutes and the supernatant serum was separated and stored in a freezer before use.
The chemical analysis of blood was carried out by employing a blood chemical analyzer (CIBA Corning 550 Express, USA) to determine the changes in GOT, GPT, total cholesterol, HDL-cholesterol and triglyceride levels.

[2] = Plasma total cholesterol and HDL-cholesterol of rats fed a high-cholesterol diet; assay type: in vivo, rat (Sprague-Dawley); details: for HDL-C/TC ratio / HDL-C (HDL-cholesterol) / TC (Total cholesterol): 0.1% in 1% cholesterol diet, six weeks; for HDL-C/TC ratio: Control 28, listed as head is [formula]; for HDL-C (HDL-cholesterol): Control 38 ± 2; for TC (Total cholesterol): Control 135 ± 6; for increase of HDL-C/TC ratio / reduction of total plasma cholesterol level: as compared with control group
Excerpt: 40 three-week-old white Sprague-Dawley rats (Taihan laboratory animal center, Korea), each weighing about 90 to 110 g, were evenly divided into four dietary groups by a randomized block design. The rats of the four groups were fed with four different high-cholesterol diets, i.e., AIN-76 laboratory animal diet (ICN Biochemicals, Cleveland, Ohio, U.S.A.) containing 1% cholesterol (Control group); 1% cholesterol plus 0.1% 4-hydroxycinnamic acid (4-hydroxycinnamic acid group); 1% cholesterol plus 0.1% 3,4-dihydroxycinnamic acid (3,4-dihydroxycinnamic acid group); and 1% cholesterol plus 0.1% 3,4-dihydroxyhydrocinnamic acid (3,4-dihydroxyhydrocinnamic acid group), respectively.
The rats were allowed to feed freely on the specified diet together with water for six weeks, the ingestion amount was recorded daily and the rats were weighed every 7 days, and then the record was analyzed.
The effects of administering cinnamic acid derivatives to rats on the plasma cholesterol and neutral lipid contents were determined as follows.
The rats of the four dietary groups obtained in Step 1 were sacrificed and blood samples were taken therefrom. The blood was allowed to stand for 2 hours and centrifuged at 3,000 rpm for 15 minutes and the supernatant was separated and stored in a deep freezer before use. The chemical analysis of blood was carried out by employing a blood chemical analyzer (CIBA Corning 550 Express, USA) to determine the changes in total cholesterol and HDL-cholesterol levels.

O=C(O)/C=C/c1ccc(O)cc1 [4-Hydroxycinnamic acid, 4-hydroxycinnamic acid]
HDL/TC [1]: 3.7 ± 1.3%
HDL-C (High density lipoprotein-cholesterol) [1]: 57 ± 28 mg/dL
TG (Triglyceride) [1]: 167 ± 43 mg/dL
TC (Total cholesterol) [1]: 1517 ± 417 mg/dL
HDL-C/TC ratio [2]: 56
HDL-C (HDL-cholesterol) [2]: 57 ± 3 mg/dL
TC (Total cholesterol) [2]: 102 ± 6 mg/dL
increase of HDL-C/TC ratio [2]: 100%
reduction of total plasma cholesterol level [2]: 24%

O=C(O)/C=C/c1ccc(O)c(O)c1 [3,4-dihydroxycinnamic acid]
HDL/TC [1]: 3.4 ± 0.4%
HDL-C (High density lipoprotein-cholesterol) [1]: 53 ± 13 mg/dL
TG (Triglyceride) [1]: 139 ± 46 mg/dL
TC (Total cholesterol) [1]: 1559 ± 347 mg/dL
HDL-C/TC ratio [2]: 33
HDL-C (HDL-cholesterol) [2]: 39 ± 3 mg/dL
TC (Total cholesterol) [2]: 118 ± 6 mg/dL
increase of HDL-C/TC ratio [2]: 18%
reduction of total plasma cholesterol level [2]: 13%

O=C(O)CCc1ccc(O)c(O)c1 [3,4-dihydroxyhydrocinnamic acid]
HDL/TC [1]: 6.3 ± 1.6%
HDL-C (High density lipoprotein-cholesterol) [1]: 80 ± 23 mg/dL
TG (Triglyceride) [1]: 108 ± 22 mg/dL
TC (Total cholesterol) [1]: 1256 ± 150 mg/dL
HDL-C/TC ratio [2]: 35
HDL-C (HDL-cholesterol) [2]: 45 ± 4 mg/dL
TC (Total cholesterol) [2]: 127 ± 4 mg/dL
increase of HDL-C/TC ratio [2]: 25%
reduction of total plasma cholesterol level [2]: 6%
